The values that follow come from ChEMBL document CHEMBL5576086, “Macrocarpal B blocks the binding between the phospholipase A2 receptor and its antibodies” (Bioorg Med Chem, 2024).

Structures are written as SMILES. Active and inactive are the calls of the source. No cut-off for these calls is given here. Starred links: 1 amine or outer side, 2 acyl side, 3 side chain; linkers in the order of their positions; H or OH if unused. Positions of bridges follow the written chain, without caps; N, C: chain ends. Non-standard residues stand in square brackets, D forms with d. Residues, ends and D or L forms follow the SMILES beside them. Chains are numbered I, II in the order given. Actinocin(9to1) = Cc1c2oc3c(C)ccc(C(=O)[*:1])c3nc-2c(C(=O)[*:2])c(N)c1=O; NMeV = CN[C@H](C(=O)O)C(C)C; Sar = CNCC(=O)O

The species entered for assay [1] is Homo sapiens. Description: Inhibition of Anti-PLA2R IgG interaction with human recombinant PLA2 receptor at 10 uM incubated for 1 hr by ELISA analysis relative to control.
The species entered for assay [2] is Homo sapiens. Put plainly: Inhibition of Anti-PLA2R IgG interaction with human recombinant PLA2 receptor at 10 uM by SPR analysis relative to control.
Assay [3] has as its system Podocyte. Description: Recovery of Podocin-expression in membranous nephropathy-patient derived 5% plasma induced human Podocytes by Western blot analysis. Format: functional, cell-based. Particulars: dose 0.2-5 µM.
The species entered for assay [4] is Homo sapiens. Description: Binding affinity to human Anti-PLA2R IgG at 1 to 500 uM by SPR analysis. The note with it: dose 1-500 µM.
Assay [5] has as its system Podocyte. Put plainly: Reversal of membranous nephropathy-patient derived 5% plasma induced cytotoxicity against human Podocytes assessed as cell viability recovery by measuring optical density at 1 uM measured at 48 hrs by CCK-8 assay (reference value: 0.4 +/- 0.1). It is filed as functional.
In assay [6] the test system is Podocyte. Description: Reversal of membranous nephropathy-patient derived 5% plasma induced cytotoxicity against human Podocytes assessed as cell viability recovery by measuring optical density at 0.2 uM measured at 72 hrs by CCK-8 assay (reference value: 0.3 +/- 0.05). Format: functional.
Assay [7] concerns Podocyte. Description: Reversal of membranous nephropathy-patient derived 5% plasma induced cytotoxicity against human Podocytes assessed as cell viability recovery by measuring optical density at 1 uM measured at 72 hrs by CCK-8 assay (reference value: 0.3 +/- 0.05). It is filed as functional.
Assay [8] relates to Podocyte. Put plainly: Reversal of membranous nephropathy-patient derived 5% plasma induced inhibition of cell migration in human Podocytes assessed as restoration of number of migrating cells at 1 uM measured upto 24 hrs by wound healing assay (reference value: 25.3 +/- 5.1). It is filed as functional.
Assay [9] concerns the target Secretory phospholipase A2 receptor (Homo sapiens, UniProt Q13018). Description: Binding affinity to human recombinant PLA2 receptor assessed as dissociation constant by SPR analysis.
Assay [10] relates to Podocyte. Put plainly: Reversal of membranous nephropathy-patient derived 5% plasma induced cytotoxicity against human Podocytes assessed as cell viability recovery by measuring optical density at 5 uM measured at 72 hrs by CCK-8 assay (reference value: 0.3 +/- 0.05). It is filed as functional.
The species entered for assay [11] is Homo sapiens. Description: Inhibition of Anti-PLA2R IgG interaction with human recombinant PLA2 receptor assessed as maximum inhibition at 0 to 5 uM by SPR analysis relative to control. Particulars: dose 0-5 µM.
In assay [12] the test system is Podocytes. Put plainly: Inhibition of Anti-PLA2R IgG binding to human recombinant PLA2 receptor in human Podocytes assessed as mean fluorescence intensity at 5 uM by immunofluorescence analysis (reference value: 8.1 +/- 1.5). It is filed as cell-based.
The test system of assay [13] is Podocyte. Description: Reversal of membranous nephropathy-patient derived 5% plasma induced cytotoxicity against human Podocytes assessed as cell viability recovery by measuring optical density at 5 uM measured at 48 hrs by CCK-8 assay (reference value: 0.4 +/- 0.1). It is filed as functional.
For assay [14], the system named is Podocyte. Description: Reversal of membranous nephropathy-patient derived 5% plasma induced cytotoxicity against human Podocytes assessed as cell viability recovery by measuring optical density at 0.2 uM measured at 48 hrs by CCK-8 assay (reference value: 0.4 +/- 0.1). It is filed as functional.
The species named for assay [15] is Homo sapiens. Description: Inhibition of Anti-PLA2R IgG interaction with human recombinant PLA2 receptor by SPR analysis. Particulars: dose 50-80 nM.

Sequence of Secretory phospholipase A2 receptor (Q13018 whole entry): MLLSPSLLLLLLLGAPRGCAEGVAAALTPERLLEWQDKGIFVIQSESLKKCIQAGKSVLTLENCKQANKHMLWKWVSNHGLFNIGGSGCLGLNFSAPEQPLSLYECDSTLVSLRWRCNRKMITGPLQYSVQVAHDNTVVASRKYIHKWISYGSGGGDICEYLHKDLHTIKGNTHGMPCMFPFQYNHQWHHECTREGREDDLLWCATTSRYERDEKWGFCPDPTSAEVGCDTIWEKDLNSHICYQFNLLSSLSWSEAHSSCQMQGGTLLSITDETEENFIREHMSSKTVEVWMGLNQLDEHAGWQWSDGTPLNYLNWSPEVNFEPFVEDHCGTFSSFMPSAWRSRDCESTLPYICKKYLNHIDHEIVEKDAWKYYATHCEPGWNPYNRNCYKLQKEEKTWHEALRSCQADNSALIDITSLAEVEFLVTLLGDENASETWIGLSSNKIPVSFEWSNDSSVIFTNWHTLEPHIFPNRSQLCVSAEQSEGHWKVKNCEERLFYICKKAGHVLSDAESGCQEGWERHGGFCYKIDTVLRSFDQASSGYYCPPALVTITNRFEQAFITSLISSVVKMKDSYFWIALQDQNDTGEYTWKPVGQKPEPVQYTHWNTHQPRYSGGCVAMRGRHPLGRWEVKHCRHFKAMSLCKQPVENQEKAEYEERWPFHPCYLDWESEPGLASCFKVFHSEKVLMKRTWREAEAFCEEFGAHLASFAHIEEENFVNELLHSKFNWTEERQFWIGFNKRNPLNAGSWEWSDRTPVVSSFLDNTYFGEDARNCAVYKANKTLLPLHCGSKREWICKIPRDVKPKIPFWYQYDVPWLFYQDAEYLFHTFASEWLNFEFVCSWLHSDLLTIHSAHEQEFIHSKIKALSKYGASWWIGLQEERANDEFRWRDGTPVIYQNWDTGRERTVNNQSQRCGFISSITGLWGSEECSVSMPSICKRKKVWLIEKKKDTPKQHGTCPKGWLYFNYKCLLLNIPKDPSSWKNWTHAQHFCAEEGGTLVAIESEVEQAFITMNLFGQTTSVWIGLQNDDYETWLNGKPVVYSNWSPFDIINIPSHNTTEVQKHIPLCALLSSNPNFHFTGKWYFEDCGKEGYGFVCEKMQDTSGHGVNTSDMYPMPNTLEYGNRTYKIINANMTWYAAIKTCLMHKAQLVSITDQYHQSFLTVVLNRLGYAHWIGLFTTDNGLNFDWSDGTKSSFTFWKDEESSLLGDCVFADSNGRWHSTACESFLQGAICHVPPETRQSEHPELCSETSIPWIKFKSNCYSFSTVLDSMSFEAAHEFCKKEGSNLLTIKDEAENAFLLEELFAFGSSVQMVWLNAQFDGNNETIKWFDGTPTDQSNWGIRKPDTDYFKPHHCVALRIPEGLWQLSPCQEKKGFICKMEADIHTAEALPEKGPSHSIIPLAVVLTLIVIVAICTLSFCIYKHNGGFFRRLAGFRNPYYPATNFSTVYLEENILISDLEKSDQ

Regarding `CC(C)=CCc1cc2c(=O)c3c(O)c(CC=C(C)C)c(O)c(CC=C(C)C)c3oc2c(O)c1O`, the inhibition in [1] is 55.4%.
As for `CC(C)=CCC[C@]1(C)C=Cc2c(O)c3c(c(CC=C(C)C)c2O1)O[C@]12C(=C[C@@H]4C[C@H]1C(C)(C)O[C@@]2(C/C=C(/C)C(=O)O)C4=O)C3=O`, the inhibition in [1] worked out at 73.1%; in assay [2] it was 13.4%.
The corresponding values for `CC(C)C[C@@H](c1c(O)c(C=O)c(O)c(C=O)c1O)[C@@H]1CC[C@@](C)(O)[C@@H]2[C@@H]3[C@H](CC[C@]21C)C3(C)C` are 34.3% and 12.6%.
For `CC(=O)O[C@H]1C[C@]2(O)C(COC(=O)C(OC(=O)CC(C)C)C(C)C)=CO[C@@H](OC(=O)CC(C)C)[C@@H]2[C@@]12CO2` (some centres undefined), the inhibition in assay [1] turned out to be 30.2%; in [2], 7.7%.
`COc1c(O)c2c(=O)cc(OC)c3c4c(OC)cc(O)c5c(=O)c(OC)c6c(c(c1[C@H](C(C)=O)[C@](C)(O)C6)c23)c54`: the inhibition in assay [1] turned out to be 74.3%; in assay [2] it was 11.9%.
The corresponding values for `CC(=O)C[C@]1(O)C(=O)C2=C(OC[C@@H]2C)c2ccc3c(C)cccc3c21` are 28.7% and 10.1%.
For the compound `CC1(C)CC[C@]2(C(=O)O)CC[C@]3(COC(=O)/C=C/c4ccc(O)c(O)c4)C(=CC[C@@H]4[C@@]5(C)CC[C@H](O)C(C)(C)[C@@H]5CC[C@]43C)[C@@H]2C1`, in assay [1], the inhibition is 20.5%.
With `CO[C@H]1C[C@H](O[C@H]2[C@H](C)O[C@@H](O[C@@H]3/C(C)=C/C[C@@H]4C[C@@H](C[C@]5(C=C[C@H](C)[C@@H](C6CCCCC6)O5)O4)OC(=O)[C@@H]4C=C(C)[C@@H](O)[C@H]5OC/C(=C\C=C\[C@@H]3C)[C@]54O)C[C@@H]2OC)O[C@@H](C)[C@@H]1O`, the inhibition was 27.1% in assay [1] and 12% in assay [2].
Take `Cc1c2oc3c(C)ccc(C(=O)N[C@@H]4C(=O)N[C@H](C(C)C)C(=O)N5CCC[C@H]5C(=O)N(C)CC(=O)N(C)[C@@H](C(C)C)C(=O)O[C@@H]4C)c3nc-2c(C(=O)N[C@@H]2C(=O)N[C@H](C(C)C)C(=O)N3CCC[C@H]3C(=O)N(C)CC(=O)N(C)[C@@H](C(C)C)C(=O)O[C@@H]2C)c(N)c1=O` (I: T[dV]P[Sar][NMeV] / II: T[dV]P[Sar][NMeV]; ester I:1-I:C, II:1-II:C; linker I:N-II:N via Actinocin(9to1)): the inhibition in [1] stood at 79.3%.
Regarding `CC(C)C[C@@H](c1c(O)c(C=O)c(O)c(C=O)c1O)[C@@]1(C)CC[C@H]2C1=C[C@H](C(C)(C)O)CC[C@H]2C`, the inhibition in [1] was 21.2%; in [2], 11.3%.
The matching figures for `COc1cc(O)c2c(=O)c3cc(CC=C(C)C)c(O)c(O)c3oc2c1CC=C(C)C`: 51.8% and 10.7%.
Consider `CC(=O)O[C@H]1C[C@@H]2C(COC(=O)CC(C)C)=CO[C@@H](OC(=O)CC(C)C)[C@@H]2[C@@]12CO2`, for which, in assay [1], the inhibition was 26.4%.
On to `CC(C)=CCc1c(O)c(CC=C(C)C)c2oc3c(O)ccc(O)c3c(=O)c2c1O`, for which the inhibition in assay [1] stood at 49.4%; in [2], 12.2%.
`CC(C)C[C@H](c1c(O)c(C=O)c(O)c(C=O)c1O)[C@@]1(C)CC[C@@H]2[C@@H]1[C@H]1[C@@H](CC[C@@]2(C)O)C1(C)C` [MACROCARPAL B]: the Activity result in [3] was “Dose-Dependent Effect”; in assay [8], 50.7. Also, in [4], the result was inactive. In addition, the OD worked out at 0.7 in [5]; 0.5 in [6]; 0.6 in assay [7]; 0.6 in assay [10]; 0.8 in assay [13]; 0.6 in [14]. In addition, the inhibition in [1] is 41.6%; in assay [2] it was 19%; in [15] it was “Dose-Dependent Effect”. In addition, the Kd in [9] was found to be 1470 nM. Also, the Imax in assay [11] turned out to be 30%. Besides, the Flu intensity in assay [12] came out at 2.1.
In the case of `CCCCCc1cc(O)c(C/C=C(\C)CCC=C(C)C)c(O)c1`, the figures for the inhibition in assay [1] and in assay [2] were 32.9% and 9.7%, respectively.
